Results reported in publication PMC5487340, “Peptides derived from MARCKS block coagulation complex assembly on phosphatidylserine” (Scientific Reports, 2017).

B1: annexin V: PS binding protein, positive control (protein)
chain: MAQVLRGTVTDFPGFDERADAETLRKAMKGLGTDEESILTLLTSRSNAQRQEISAAFKTLFGRDLLDDLKSELTGKFEKLIVALMKPSRLYDAYELKHALKGAGTNEKVLTEIIASRTPEELRAIKQVYEEEYGSSLEDDVVGDTSGYYQRMLVVLLQANRDPDAGIDEAQVEQDAQALFQAGELKWGTDEEKFITIFGTRSVSHLRKVFDKYMTISGFQIEETIDRETSGNLEQLLLAVVKSIRSIPAYLAETLYYAMKGAGTDDHTLIRVMVSRSEIDLFNIRKEFRKNFATSLYSMIKGDTSGDYKKALLLLCGEDD

Columns and labels:
[1] = tested on: prothrombinase (bovine FXa and FVa) on washed human platelets activated by convulxin and thrombin; experiment: Platelet-dependent prothrombinase assay; assay type: biochemical; conditions: 1 μM, washed human platelets with convulxin and thrombin, thrombin Vmax with S-2238, n = 8
Experimental: Human whole blood was collected from healthy volunteers by venipuncture into 3.2% sodium citrate. Washed platelets were prepared from whole blood collected by venipuncture into 3.8% sodium citrate and acid-citrate-dextrose (ACD). Platelet-rich plasma (PRP) was prepared by centrifugation of whole blood at 200 g for 20 min. Platelets were isolated from the PRP by centrifugation at 1000 g for 10 min with 0.1 μg ml^−1 prostacyclin (PGI2) (Sigma-Aldrich). The resulting pellet was resuspended with modified Tyrode’s buffer (129 mM NaCl, 20 mM HEPES, 12 mM NaHCO3, 2.9 mM KCl, 1.0 mM MgCl2, 0.34 mM Na2HPO4, 5 mM glucose, pH 7.3), ACD, and 0.1 μg ml^−1 PGI2. Platelets were then washed by re-pelleting at 1000 g for 10 min and re-suspending with modified Tyrode’s buffer.
Effects on coagulation factor enzymatic activity were determined using a modification of a previously described prothrombinase assay, [55]. Washed human platelets (8 × 10^5 reaction^−1) were incubated at 37 °C with either a buffer blank or 375 ng ml^−1 convulxin (Centerchem, Norwalk, CT) and 5.0 nM thrombin (Haematologic Technologies) in modified Tyrode’s buffer containing 2.9 mM CaCl2 and 0.05% wt vol^−1 fatty acid-free bovine serum albumin (BSA). After 7 min, 1 μM investigational peptide or protein, or a buffer blank, was added, followed 3 min later by bovine FXa (3 nM) and FVa (6 nM) (Haematologic Technologies). […]

[2] = tested on: fibrin formation in whole human blood; experiment: Whole blood microfluidic flow assay; assay type: cell-based; conditions: whole human blood over collagen, 10 min, wall shear rate 100 s^-1, 1 μM peptide or annexin V, heparin 15 USP ml^-1, n = 6
Description: Effects on whole blood platelet activation and accumulation, as well as fibrin formation, were examined using a modification of a previously described microfluidic flow assay. A custom polydimethylsiloxane microfluidic flow device containing four channels, each with a height of 100 μm and width of 500 μm, was vacuum mounted to a glass slide patterned with a type I fibrillar collagen strip (Chrono-log). The microfluidic flow device channels were oriented perpendicular to the patterned collagen strip, resulting in a 50 μm patch of collagen across the width of each channel. Whole blood was labeled with a Pacific Blue anti-human CD41 antibody (BioLegend) for 10 min, followed by the addition of 30 μg ml^−1 Alexa Fluor 647 human plasma fibrinogen conjugate (Life Technologies) and either 1 μM NBD labeled investigational peptide, 1 μM annexin V (BioVision), or 15 USP ml^−1 heparin. Immediately before the assay, the whole blood mixture was recalcified to 7.5 mM CaCl2. The whole blood was then pulled through the device channels for 10 min at wall shear rate 100 s^−1 using a PhD Ultra syringe pump (Harvard Apparatus, Holliston, MA). […] Fluorescence intensities and platelet surface area coverages were measured using ImageJ (NIH, Bethesda, MD). […]

[3] = tested on: P-selectin positive platelets; experiment: Flow cytometry of binding to platelets; assay type: cell-based; conditions: washed human platelets, 1 μM NBD labeled peptide, 30 min, n = 6
Experimental: Human whole blood was collected from healthy volunteers by venipuncture into 3.2% sodium citrate. Washed platelets were prepared from whole blood collected by venipuncture into 3.8% sodium citrate and acid-citrate-dextrose (ACD). Platelet-rich plasma (PRP) was prepared by centrifugation of whole blood at 200 g for 20 min. Platelets were isolated from the PRP by centrifugation at 1000 g for 10 min with 0.1 μg ml^−1 prostacyclin (PGI2) (Sigma-Aldrich). The resulting pellet was resuspended with modified Tyrode’s buffer (129 mM NaCl, 20 mM HEPES, 12 mM NaHCO3, 2.9 mM KCl, 1.0 mM MgCl2, 0.34 mM Na2HPO4, 5 mM glucose, pH 7.3), ACD, and 0.1 μg ml^−1 PGI2. Platelets were then washed by re-pelleting at 1000 g for 10 min and re-suspending with modified Tyrode’s buffer. Washed platelets were obtained from the whole blood as described above. The platelets were resuspended in modified Tyrode’s buffer containing 2 mM CaCl2, counted, and diluted to 2 × 10^4 platelets μL^−1. Platelets were stimulated with either 1 IU ml^−1 thrombin (Chrono-log, Havertown, PA), 250 ng ml^−1 convulxin (Centerchem), 1 IU ml^−1 thrombin and 250 ng ml^−1 convulxin, or left unstimulated for 10 min at room temperature. […] The samples were then immediately fixed in 1% paraformaldehyde, diluted, and analyzed on a MoFlo Astrios EQ flow cytometer (Beckman Coulter, Brea, CA) with appropriate color compensation.

Row | Molecule | reduction in prothrombinase activity [1] | fibrin formation on adherent platelets (in words) [2] | labeling of unstimulated platelets [3]
1 | H-GGDYDKIGKNDA-NH2 [C2BL3-L, NH2-GGDYDKIGKNDA-CONH2] | 17% |  | 
2 | heparin |  | equivalent fibrin formation inhibition to that of the MARCKS ED peptides | 
3 | B1 |  | equivalent fibrin formation inhibition to that of the MARCKS ED peptides | Neither D-MARCKS ED nor annexin V labeled the unstimulated platelets
